Source: publication PMC5842274, “Anti-GD2 Immunoliposomes for Targeted Delivery of the Survivin Inhibitor Sepantronium Bromide (YM155) to Neuroblastoma Tumor Cells” (Pharmaceutical Research, 2018)
Like-named read-outs stand apart in the source and are kept apart here.

Columns and labels:
[1] = Table I, no reference given; cited from earlier work
[2] = Tumor accumulation of YM155 in subcutaneous KCNR tumor xenografts; type: in vivo, mice; conditions: single i.v. 1 mg/kg
Description: Animal experiments were conducted in compliance with the national regulations and have been approved by the local ethical committee for animal experimentation. NMRI nu/nu female mice (25 g, Charles River, Massachusetts, USA) were housed in a temperature-controlled room (approximately 22°C) with 55 to 65% relative humidity, a photoperiod of 12/12 h with free access to water and pelleted rodent food. The mice were challenged with KCNR neuroblastoma (passage 1–2) derived from DAG102776 by serial xenotransplantation in both flanks. When the tumor growth reached the size of approximately 8 × 8 mm, mice were randomly divided in three groups that were injected intravenously with either free YM155 dissolved in HBS (1 mg/kg, n = 11), YM155 loaded anti-GD2-immunoliposomes (3 μmol TL/kg diluted in HBS, equivalent to 1 mg/kg YM155, n = 11), or an equivalent dose of YM155 loaded control liposomes (n = 11). […]
(§1) Pharmacokinetic analysis of the in-vivo data was performed using the Pk Solver 2.0 add-in template for Microsoft Excel, as described previously ([35]). Pharmacokinetic parameters were determined by non-compartmental analysis (NCA) using linear-logarithmic trapezoidal model fitting, or by compartmental analysis (CA) using 1-compartment model fitting.

[3] = tested on: KCNR cells; assay: alamarBlue viability assay; type: cell-based; conditions: 24 h incubation, read-out: IC50 (cell viability)
Description: Efficacy of YM155 loaded liposomes (targeted and non-targeted control liposomes) was studied on KCNR by alamarBlue viability assay (Thermo Fischer Scientific), according to the supplier’s instruction. KCNR cells were seeded at 20 × 10^3 cells/well in 96 well Greiner polystyrene plates (Sigma Aldrich) in complete DMEM medium and allowed to adhere overnight. The medium was replaced by cell culture medium supplemented with YM155 or YM155 liposomal formulations at concentrations ranging from 0.8 to 100 nM, after which the cell culture were incubated for 24 h at 37°C. Control experiments included incubations with empty liposomes (i.e. without YM155) at equivalent TL concentrations in the range of 0.08–11 μM TL. After 24 h of incubation, medium was replaced with drug-free medium containing alamarBlue reagent (10 vol%), after which cells were incubated for an extra 3 h at 37°C. Fluorescence was quantified with a microplate reader (Mithras LB940) and used to calculate the relative percentage of living cells normalized against control cells that had not been treated with YM155. IC50 values were calculated by curve fitting using non-linear regression in Graph Pad Prism 6.0.

[4] = tested on: neuroblastoma cell lines; conditions: most neuroblastoma cell lines; Table I, no reference given; cited from earlier work
[5] = cited from earlier work
[6] = Pharmacokinetic pilot study, YM155 in blood/plasma after single i.v. administration; type: in vivo, mice; conditions: for half-life / Vd: 1 mg/kg
Description: Animal experiments were conducted in compliance with the national regulations and have been approved by the local ethical committee for animal experimentation. NMRI nu/nu female mice (25 g, Charles River, Massachusetts, USA) were housed in a temperature-controlled room (approximately 22°C) with 55 to 65% relative humidity, a photoperiod of 12/12 h with free access to water and pelleted rodent food. The mice were challenged with KCNR neuroblastoma (passage 1–2) derived from DAG102776 by serial xenotransplantation in both flanks. When the tumor growth reached the size of approximately 8 × 8 mm, mice were randomly divided in three groups that were injected intravenously with either free YM155 dissolved in HBS (1 mg/kg, n = 11), YM155 loaded anti-GD2-immunoliposomes (3 μmol TL/kg diluted in HBS, equivalent to 1 mg/kg YM155, n = 11), or an equivalent dose of YM155 loaded control liposomes (n = 11). At designated time points (i.e. 5 min, 9 min, 15 min, 30 min, 1 h, 4 h, 8 h, 24 h, 48 h and 72 h), blood samples (approximately 0.5 ml per sampling time point) were collected in tubes containing EDTA as anticoagulant and mice were sacrificed. Blood samples and excised tumors were stored at −80°C until analysis of their YM155 concentration by liquid chromatography-tandem mass spectrometry (LC-MS/MS) ([34]).
as §1

COCCn1c2c([n+](Cc3cnccn3)c1C)C(=O)c1ccccc1C2=O [YM155, Sepantronium bromide]
LogP [1]: −3.7 | Solubility in water [1]: At least 0,5 mg/ml | pKa [1]: 5.3 | Time intratumor levels of YM155 could be detected post injection [2]: up to 24 h | IC50 [3]: 27 nM | IC50 [4]: Low nM range for most neuroblastoma cell lines | Previously reported half-life [5]: ~ 1 h | Plasma half-life ([5]; mice and rats): 60 to 120 min | AUC(0-inf) ([6]; female, NMRI nu/nu, mouse, iv, single i.v. 1 mg/kg, NCA, blood/plasma): 136 ng·h/mL | half-life ([6]; female, NMRI nu/nu, mouse, plasma, iv, single i.v. 1 mg/kg YM155, female mice with KCNR xenografts, non-compartmental analysis, read-out: t1/2 (NCA) (converted)): 24 min | Vd ([6]; female, NMRI nu/nu, mouse, plasma, iv, single i.v. 1 mg/kg, NCA, read-out: Vss): 2.47 L/kg | Vd ([6]; female, NMRI nu/nu, mouse, plasma, iv, single i.v. 1 mg/kg, NCA, read-out: Vz): 4.65 L/kg | half-life ([6]; female, NMRI nu/nu, mouse, plasma, iv, single i.v. 1 mg/kg, compartmental analysis, 1-compartment model, read-out: CA t1/2 (converted)): 12 min | clearance ([6]; female, NMRI nu/nu, mouse, plasma, iv, single i.v. 1 mg/kg, NCA): 122 mL/min/kg | MRT inf ([6]; female, NMRI nu/nu, mouse, plasma, iv, single i.v. 1 mg/kg, NCA, read-out: MRT0-∞): 20.4 min | Time plasma levels were detectable post administration ([6]; single i.v. 1 mg/kg): about 8 h
